From patent US9919998B2, “Antibacterial agents: Nα-aroyl-N-aryl-phenylalaninamides” (priority 2014, dated 2018)
Values after ≈ are worked out from the molar mass of the structure shown.

Assays:
Format in all cases: cell-based
[1] = test system: Mycobacterium tuberculosis H37Rv; experiment: Microplate Alamar Blue assay (MABA) MIC, M. tuberculosis; conditions: read-out: MIC Mycobacterium tuberculosis H37Rv
Source text: (§1) Minimal inhibitory concentrations (MICs) in Mycobacterium tuberculosis H37Rv and Mycobacterium avium ATCC 25291 were quantified using microplate Alamar Blue assays as described (MABA; [Collins, L. & Franzblau, S. (1997) Microplate Alamar Blue assay versus BACTEC 460 system for high-throughput screening of compounds against Mycobacterium tuberculosis and Mycobacterium avium. Antimicrob. Agents Chemother. 41, 1004-1009]).

[2] = test system: Mycobacterium smegmatis ATCC 19420; experiment: Broth microdilution MIC, M. smegmatis; conditions: Mycolicibacterium smegmatis, ATCC19420, M. smegmatis ATCC 19420; read-out: MIC Mycobacterium smegmatis ATCC 19420
Source text: MICs in Mycobacterium smegmatis ATCC 19420 and Mycobacterium smegmatis ATCC 19420 derivatives were quantified using broth microdilution assays as described [Clinical and Laboratory Standards Institute (CLSI/NCCLS) (2009) Methods for Dilution Antimicrobial Susceptibility Tests for Bacteria That Grow Aerobically; Approved Standard, Eighth Edition. CLIS Document M07-A8 (CLIS, Wayne Pa.)].

[3] = test system: Vero E6 ATCC CRL1586 cells; experiment: Mammalian-cell cytotoxicity, minimal cytotoxic concentration (CellTiter96)
Experimental: Minimal cytotoxic concentrations (MCCs) against mammalian cells in culture were determined using Vero E6 ATCC CRL1586 cells and the CellTiter96 assay kit (Promega, Inc.). […]

[4] = test system: Mycobacterium avium ATCC 25291; experiment: Microplate Alamar Blue assay (MABA) MIC, M. avium; conditions: ATCC25291, M. avium ATCC 25291
Source text: as §1

Compound | MIC [1] [µg/mL] | MIC [2] [µg/mL] | MCC mammalian cells Vero E6 ATCC CRL1586 [3] [µg/mL] | MIC [4] [µg/mL]
O=C(NC(Cc1ccccc1)C(=O)Nc1cccc2c1OCCO2)c1cccc2[nH]ccc12 (stereo not shown) [IX-45, N-(1-((2,3-dihydrobenzo[b][1,4]dioxin-5-yl)amino)-1-oxo-3-phenyl-propan-2-yl)-1H-indole-4-carboxamide] | 3.12 (≈ 7.08 µM) | 0.39 (≈ 0.883 µM) | 71 | 6.25 (≈ 14.2 µM)
Cc1ccc(Cl)cc1NC(=O)C(Cc1ccc(O)cc1)NC(=O)c1ccccc1 (stereo not shown) [IX-51, N-(1-((5-chloro-2-methylphenyl)amino)-3-(4-hydroxyphenyl)-1-oxopropan-2-yl)benzamide] | 3.12 (≈ 7.64 µM) | 0.78 (≈ 1.91 µM) | 60 | 6.25 (≈ 15.3 µM)
Cc1ccc(Cl)cc1NC(=O)C(Cc1ccccc1)NC(=O)c1cccc2[nH]ccc12 (stereo not shown) [IX-53, N-(1-((5-chloro-2-methylphenyl)amino)-1-oxo-3-phenylpropan-2-yl)-1H-indole-4-carboxamide] | 3.12 (≈ 7.24 µM) | 0.39 (≈ 0.903 µM) | 34 | 3.12 (≈ 7.24 µM)
Cc1ccccc1NC(=O)C(Cc1ccc(O)cc1)NC(=O)c1ccccc1F (stereo not shown) [IX-54, 2-fluoro-N-(3-(4-hydroxyphenyl)-1-oxo-1-(o-tolylamino)propan-2-yl)benzamide] | 25 (≈ 63.7 µM) | 1.56 (≈ 3.98 µM) | >100 | 50 (≈ 127 µM)
COc1ccccc1NC(=O)C(Cc1ccccc1)NC(=O)c1ccccc1F (stereo not shown) [IX-56, 2-fluoro-N-(1-((2-methoxyphenyl)amino)-1-oxo-3-phenylpropan-2-yl)benzamide] | 3.12 (≈ 7.96 µM) | 0.39 (≈ 0.994 µM) | 97 | 6.25 (≈ 15.9 µM)
O=C(NC(Cc1ccccc1)C(=O)Nc1cccc2cnccc12)c1ccccc1F (stereo not shown) [IX-57, 2-fluoro-N-(1-(isoquinolin-5-ylamino)-1-oxo-3-phenylpropan-2-yl)benzamide] | 6.25 (≈ 15.1 µM) | 0.39 (≈ 0.943 µM) | 79 | 12.5 (≈ 30.2 µM)
O=C(NC(Cc1ccccc1)C(=O)Nc1cccc2c1OCCO2)c1ccccc1F (stereo not shown) [IX-59, N-(1-((2,3-dihydrobenzo[b][1,4]dioxin-5-yl)amino)-1-oxo-3-phenylpropan-2-yl)-2-fluorobenzamide] | 3.12 (≈ 7.43 µM) | 0.095 (≈ 0.226 µM) | 49 | 6.25 (≈ 14.9 µM)
Cc1ccccc1NC(=O)C(Cc1ccc(O)cc1)NC(=O)c1ccccc1Cl (stereo not shown) [IX-60, 2-chloro-N-(3-(4-hydroxyphenyl)-1-oxo-1-(o-tolylamino)propan-2-yl)benzamide] | 50 (≈ 122 µM) | 3.12 (≈ 7.64 µM) | >100 | > 50
Cc1ccc(Cl)cc1NC(=O)C(Cc1ccccc1)NC(=O)c1ccccc1Cl (stereo not shown) [IX-61, 2-chloro-N-(1-((5-chloro-2-methylphenyl)amino)-1-oxo-3-phenylpropan-2-yl)benzamide] | > 50 | 0.39 (≈ 0.913 µM) | 9.2 | > 50
COc1ccccc1NC(=O)C(Cc1ccccc1)NC(=O)c1ccccc1Cl (stereo not shown) [IX-62, 2-chloro-N-(1-((2-methoxyphenyl)amino)-1-oxo-3-phenylpropan-2-yl)benzamide] | 6.25 (≈ 15.3 µM) | 0.39 (≈ 0.954 µM) | 12 | 6.25 (≈ 15.3 µM)
O=C(NC(Cc1ccccc1)C(=O)Nc1cccc2cnccc12)c1ccccc1Cl (stereo not shown) [IX-63, 2-chloro-N-(1-(isoquinolin-5-ylamino)-1-oxo-3-phenylpropan-2-yl)benzamide] | 6.25 (≈ 14.5 µM) | 0.78 (≈ 1.81 µM) | >100 | 12.5 (≈ 29.1 µM)
O=C(NC(Cc1ccccc1)C(=O)Nc1cccc2ncccc12)c1ccccc1Cl (stereo not shown) [IX-64, 2-chloro-N-(1-oxo-3-phenyl-1-(quinolin-5-ylamino)propan-2-yl)benzamide] | 12.5 (≈ 29.1 µM) | 0.78 (≈ 1.81 µM) | 78 | 50 (≈ 116 µM)
O=C(NC(Cc1ccccc1)C(=O)Nc1cccc2c1OCCO2)c1ccccc1Cl (stereo not shown) [IX-65, 2-chloro-N-(1-((2,3-dihydrobenzo[b][1,4]dioxin-5-yl)amino)-1-oxo-3-phenylpropan-2-yl)benzamide] | 3.12 (≈ 7.15 µM) | 0.78 (≈ 1.79 µM) | 18 | 6.25 (≈ 14.3 µM)
Cc1ccc(Cl)cc1NC(=O)C(Cc1ccccc1)NC(=O)c1ccccc1C (stereo not shown) [IX-67, N-(1-((5-chloro-2-methylphenyl)amino)-1-oxo-3-phenylpropan-2-yl)-2-methylbenzamide] | 1.56 (≈ 3.83 µM) | 0.19 (≈ 0.467 µM) | 8 | 1.56 (≈ 3.83 µM)
COc1ccccc1NC(=O)C(Cc1ccccc1)NC(=O)c1ccccc1C (stereo not shown) [IX-68, N-(1-((2-methoxyphenyl)amino)-1-oxo-3-phenylpropan-2-yl)-2-methylbenzamide] | 3.12 (≈ 8.04 µM) | 0.39 (≈ 1 µM) | 17 | 6.25 (≈ 16.1 µM)
Cc1ccccc1C(=O)NC(Cc1ccccc1)C(=O)Nc1cccc2cnccc12 (stereo not shown) [IX-69, N-(1-(isoquinolin-5-ylamino)-1-oxo-3-phenylpropan-2-yl)-2-methylbenzamide] | 3.12 (≈ 7.63 µM) | 0.39 (≈ 0.952 µM) | >100 | 3.12 (≈ 7.63 µM)
Cc1ccccc1C(=O)NC(Cc1ccccc1)C(=O)Nc1cccc2ncccc12 (stereo not shown) [IX-70, 2-methyl-N-(1-oxo-3-phenyl-1-(quinolin-5-ylamino)propan-2-yl)benzamide] | 12.5 (≈ 30.5 µM) | 0.39 (≈ 0.952 µM) | 63 | 25 (≈ 61.1 µM)
Cc1ccccc1C(=O)NC(Cc1ccccc1)C(=O)Nc1cccc2c1OCCO2 (stereo not shown) [IX-71, N-(1-((2,3-dihydrobenzo[b][1,4]dioxin-5-yl)amino)-1-oxo-3-phenylpropan-2-yl)-2-methylbenzamide] | 1.56 (≈ 3.75 µM) | 0.39 (≈ 0.936 µM) | 10 | 3.12 (≈ 7.5 µM)
O=C(NC(Cc1ccccc1)C(=O)Nc1cccc2c1OCO2)c1ccccc1 (stereo not shown) [IX-72, N-(1-(benzo[d][1,3]dioxol-4-ylamino)-1-oxo-3-phenylpropan-2-yl)benzamide] | 6.25 (≈ 16.1 µM) | 0.095 (≈ 0.245 µM) | 33 | 3.12 (≈ 8.05 µM)
O=C(NC(Cc1ccccc1)C(=O)Nc1cc(F)cc2ncccc12)c1ccccc1 (stereo not shown) [IX-75, N-(1-((7-fluoroquinolin-5-yl)amino)-1-oxo-3-phenylpropan-2-yl)benzamide] | 0.78 (≈ 1.89 µM) | 0.39 (≈ 0.943 µM) | >100 | 0.78 (≈ 1.89 µM)
Cc1ccc(F)cc1NC(=O)C(Cc1ccccc1)NC(=O)c1cccs1 (stereo not shown) [IX-79, N-(1-((5-fluoro-2-methylphenyl)amino)-1-oxo-3-phenylpropan-2-yl)thiophene-2-carboxamide] | 1.56 (≈ 4.08 µM) | 0.19 (≈ 0.497 µM) | 23 | 1.56 (≈ 4.08 µM)
Cc1ccc(F)cc1NC(=O)C(Cc1ccccc1)NC(=O)c1cccc2[nH]ccc12 (stereo not shown) [IX-80, N-(1-((5-fluoro-2-methylphenyl)amino)-1-oxo-3-phenylpropan-2-yl)-1H-indole-4-carboxamide] | 1.56 (≈ 3.75 µM) | 0.195 (≈ 0.469 µM) | 33 | 3.12 (≈ 7.52 µM)
Cc1ccc(F)cc1NC(=O)C(Cc1ccccc1)NC(=O)c1ccccc1F (stereo not shown) [IX-81, 2-fluoro-N-(1-((5-fluoro-2-methylphenyl)amino)-1-oxo-3-phenylpropan-2-yl)benzamide] | 1.56 (≈ 3.96 µM) | 0.195 (≈ 0.494 µM) | 38 | 3.12 (≈ 7.92 µM)
Cc1ccc(F)cc1NC(=O)C(Cc1ccccc1)NC(=O)c1ccccc1Cl (stereo not shown) [IX-82, 2-chloro-N-(1-((5-fluoro-2-methylphenyl)amino)-1-oxo-3-phenylpropan-2-yl)benzamide] | 1.56 (≈ 3.8 µM) | 0.39 (≈ 0.949 µM) | 20 | 3.12 (≈ 7.61 µM)
Cc1ccc(F)cc1NC(=O)C(Cc1ccccc1)NC(=O)c1ccccc1C (stereo not shown) [IX-83, N-(1-((5-fluoro-2-methylphenyl)amino)-1-oxo-3-phenylpropan-2-yl)-2-methylbenzamide] | 0.78 (≈ 2 µM) | 0.195 (≈ 0.499 µM) | 1.4 | 1.56 (≈ 4 µM)
O=C(NC(Cc1ccccc1)C(=O)Nc1cccc2ncccc12)c1cccs1 (stereo not shown) [IX-85, N-(1-oxo-3-phenyl-1-(quinolin-5-ylamino)propan-2-yl)thiophene-2-carboxamide] | 12.5 (≈ 31.1 µM) | 0.39 (≈ 0.971 µM) | 40 | 25 (≈ 62.3 µM)
O=C(NC(Cc1ccccc1)C(=O)Nc1cccc2c1CCCC2)c1cccs1 (stereo not shown) [IX-86, N-(1-oxo-3-phenyl-1-((5,6,7,8-tetrahydronaphthalen-1-yl)amino)propan-2-yl)thiophene-2-carboxamide] | > 50 | 0.78 (≈ 1.93 µM) | 50 | > 50
O=C(NC(Cc1ccccc1)C(=O)Nc1cccc2[nH]ccc12)c1ccccc1F (stereo not shown) [IX-91, N-(1-((1H-indol-4-yl)amino)-1-oxo-3-phenylpropan-2-yl)-2-fluorobenzamide] | 50 (≈ 125 µM) | 1.56 (≈ 3.89 µM) | 65 | 50 (≈ 125 µM)
